Laboratory results: the COVID Moonshot data (paper PMC11187573), “Identification of SARS-CoV-2 Mpro inhibitors through deep reinforcement learning for de novo drug design and computational chemistry approaches” (RSC Medicinal Chemistry, 2024)

Key:
[1] = target: SARS-CoV-2 Main Protease (SARS-CoV-2) (UniProt P0DTD1)
[2] = target: SARS-CoV-2 Main Protease (SARS-CoV-2) (UniProt P0DTD1); remark: listed apart in the source

SMILES	relative solubility at 20 uM	relative solubility at 100 uM	inhibition ([1]; 50.0 µM)	inhibition ([2]; 20.0 µM)	inhibition ([2]; 50.0 µM)	inhibition ([1]; 20.0 µM)	IC50 [1]	IC50 [2]
COc1cc(Cl)cc(OC(=O)Nc2cccnc2)c1	1	1						
CN1CCN(C(=O)Cc2c[nH]c3ncccc23)CC1C(=O)NCCc1c[nH]c2ccc(F)cc12 (stereo not given)	0.98	0.98	-15%	-9.55%	-21.5%			
O=C(c1cc(=O)[nH]c2ccc(F)cc12)N1CCN(S(=O)(=O)c2ccccc2)CC1	0.98	0.98	16.2%	3.84%	11.9%			
COc1ccccc1OC(C)CNC(=O)c1cc(=O)[nH]c2cc(F)ccc12 (stereo not given)	1	0.99	5.65%	20%	59%			
NS(=O)(=O)c1ccc(N2CCC(c3ccco3)CC2)cc1	1	0.83	38.9%	5.4%	8.47%	45.9%		
O=C(NCc1ccc(Cl)cc1CN1CCN(C(=O)CCl)CC1)[C@@H]1CCCOC1 (stereo in doubt)	1	1	100%	56.7%	77.9%		20.1 µM	
O=C(CCl)N1CCN(Cc2cccc(Cl)c2)CC1	1	1	100%		108%	99.8%	0.545 µM	2.54 µM
Cc1cc(CC(=O)Nc2cnccc2C)[nH]n1	1	1	4.87%	-4.28%	0.404%			
C=CC(=O)N(c1ccc(SC)cc1)C(C(=O)Nc1c(C)cccc1CC)c1cccnc1 (stereo not given)	0.85	0.67		11.1%	24.5%	0%		
O=C(C1CCCN1C(=O)c1ccccc1)N1CCOCC1 (stereo not given)	1	1	0%		-28%	0%		
CC(NC(=O)CCl)c1cc(Cl)cc(-c2ccc(S(N)(=O)=O)cc2)c1 (stereo not given)	0.99	0.99	79%	98.4%	94.6%		0.526 µM	
C=CC(=O)N1CCC(N(Cc2ccccc2C#N)C2CCC(O)CC2)CC1 (stereo not given)	0.99	0.99	0%	-64%	-8.67%			
COc1ccc(C2CC(c3cccs3)=NN2C(=O)CCl)cc1OC (stereo not given)	0.95	0.83	91.1%	99.4%	99.2%	95.7%	0.969 µM	
O=C(Cc1c[nH]c2ncccc12)NCc1cc(Cl)ccn1	1	0.98		2.58%	8.45%	0%		
CC1(C)CC(C(=O)Nc2nncn2C2CC2)c2ccccc2O1 (stereo not given)	1	0.98	0%	-0.71%	-5.02%			
O=C(/C=C/C=C/c1ccc2c(c1)OCO2)N1CCCCC1	1	0.97				0%		

SMILES	relative solubility at 20 uM	relative solubility at 100 uM	inhibition ([1]; 50.0 µM)	inhibition ([2]; 20.0 µM)	inhibition ([2]; 50.0 µM)	inhibition ([1]; 20.0 µM)	IC50 [1]	IC50 [2]
N#Cc1cccc(C2CN(C(=O)CCl)Cc3ccccc32)c1 (stereo not given)	1	0.99		98.8%	95.3%			
Cc1nnc(NC(=O)[C@@H]2COc3ccc(Cl)cc32)n1C1CC1 (stereo in doubt)	1	1						
O=C(CCl)Nc1cccc(N2CCCC2=O)c1	1	1		27.1%	51.4%			
C=CC(=O)N1CC(NCC2=CNC3C=CC(C#N)=CC23)C1 (stereo not given)	1	0.95						
Cc1ccncc1NC(=O)Cc1cccc(Cl)c1	1	1						
O=C(CCl)N1CCN(Cc2ccsc2)CC1	1	0.99		98.8%	99.4%			
O=C(CCl)N1CCN(Cc2cccs2)CC1	1	1		94.5%	99%			
Cc1ccncc1NC(=O)Cc1cc(Cl)cc(OC2CC(=O)N2)c1 (stereo not given)	0.99	1						
O=C(Nc1cnccc1CO)C1CCOc2ccc(Cl)cc21 (stereo not given)	0.94	0.93						
COC(=O)c1c(NCCCc2ccccc2)c2cc(F)ccc2[nH]c1=O				20.5%	7.56%		68.6 µM	
O=C(Nc1cccnc1)Nc1cc(O)cc(Cl)c1			19.4%	4.43%	21.2%			
C=CC(=O)N(c1ccc(C(C)(C)C)cc1)C(C(=O)NCCc1cccc(F)c1)c1cncc(O)c1 (stereo not given)				16.1%	23.5%		26.2 µM	
O=[N+]([O-])c1cnc(Sc2nccc(-c3cccnc3)n2)s1				9.63%	37.5%		1.44 µM	
O=C1Nc2ccc(OCCF)cc2C1=O			56.2%	-6.86%	-2.92%		45.2 µM	
COC(=O)[C@H](CO)NC(=O)[C@H](Cc1ccccc1)NC(=O)OCc1ccccc1 (stereo in doubt)			0%	1.06%	2.61%			
CC(C(=O)Nc1cnccc1O)c1ccccc1 (stereo not given)			0%	0.187%	0.74%			
